What was measured:
[1] = test system: TGFβ signaling; test: Chembridge collection screen with HEK293-Thy1 SBE-Luc cell line (normalized luciferase activity); type: cell-based, human; settings: Chembridge collection re-screen
From the text: Using the recombinant HEK293-Thy1 SBE-Luc cell line described in the preceding Examples, the Chembridge collection of 20,000 small molecules was screened to identify other small molecules that inhibit TGFβ activity and, thus, may be novel anti-scarring compounds
100 top candidates from the initial screen were re-screened. Numbers indicate the Chembride molecule ID number. The second screen controls for toxicity and non-specific effects by using a constitutive luciferase to normalize results. This assay can be further used in a high throughput fashion to analyze newly derived compounds and monitor structure activity relationships (SAR) to discover new molecules that can serve as the basis for anti-scarring therapeutics.
The two-dimensional structures of the molecules are depicted in the left hand column. Chembridge collection IDs are listed in the second column and the additional columns denote the following (in order): the molecular name, the percent inhibition of the molecule using the screen (100% being a complete inhibition) (% Inhib.), and the internal key (key) for further identification in FIGS. 22 and 23.

[2] = test system: human orbital fibroblasts; test: Myofibroblast formation assay (cell images) of Chembridge hits in human orbital fibroblasts; type: cell-based
Method: FIG. 22 is a panel of cell images showing efficacy of selected Chembridge hits in myofibroblast formation assays using human orbital fibroblasts. […] Key: SNC: salinomycin control; A1: 5255687; A2:5130037; A4:9040737; B3:9057423; C2:9018748; C3:9048694; C4:9022265.
(§1) Selected Chembridge hits were tested in myofibroblast formation assays using human orbital fibroblasts (FIG. 22) and human lung fibroblasts (FIG. 23).

[3] = test system: human lung fibroblasts; test: Myofibroblast formation assay (cell images) of Chembridge hits in human lung fibroblasts; type: cell-based
Method: FIG. 23 is a panel of cell images showing efficacy of selected Chembridge hits in myofibroblast formation assays using human lung fibroblasts. […] Key: SNC: salinomycin control; A1: 5255687; A2:5130037; A4:9040737; B3:9057423; C2:9018748; C3:9048694; C4:9022265.
as §1

[4] = test system: TGFβ-induced myofibroblast formation in human fibroblasts; test: Western blot of myofibroblast markers αSMA and calponin in TGFβ-treated human (TED orbital) fibroblasts; type: cell-based; settings: 250 nM, TGFβ, 72 hours
Method: TED fibroblasts were treated with TGFβ (1 ng/ml) in the presence or absence of 10-250 nM salinomycin for 72 hours to allow formation of myofibroblasts. After 72 hours, cells were harvested and analyzed by Western blot. As expected, the fibroblasts robustly responded to TGFβ, expressing high levels of αSMA and calponin (FIG. 2A). […] At 50 nM salinomycin, expression of αSMA was reduced by 4-fold over TGFβ treatment alone. Furthermore, at 250 nM salinomycin, αSMA expression was reduced by approximately 16-fold, to levels at or below untreated fibroblasts. […] Another key role of myofibroblasts in scar formation is the production of collagen. Whether salinomycin could block myofibroblast collagen production was assessed. Cells were treated with TGFβ and salinomycin as above and after 72 hours, culture medium was collected and analyzed for collagen levels using a specific collagen I antibody and slot blot analysis.
To test these four compounds, human fibroblasts were treated with TGFβ in the absence or presence of 250 nM of either salinomycin, narasin, clioquinol or monensin for 72 hours. After treatment, cell lysates were harvested and analyzed for the presence of the myofibroblast markers, αSMA and calponin (FIG. 3B).

Structure (SMILES): Cc1ccc(C(C)NC(=O)c2c(Cl)cnn2C)cc1C (stereo not shown) [compound 9043411, 4-chloro-N-[1-(3,4-dimethylphenyl)ethyl]-1-methyl-1H-pyrazole-5-carboxamide]
- % Inhib. (percent inhibition of the molecule using the screen, 100% being a complete inhibition) [1]: 37%

Structure (SMILES): OCc1ccc(Sc2ccc(Cl)cc2)o1 [compound 7586770, {5-[(4-chlorophenyl)thio]-2-furyl}methanol]
- % Inhib. (percent inhibition of the molecule using the screen, 100% being a complete inhibition) [1]: 80%

Structure (SMILES): Cc1nn2c(=O)cc(-c3ccccc3)[nH]c2c1-c1ccc(F)cc1 [compound 9040737, 3-(4-fluorophenyl)-2-methyl-5-phenylpyrazolo[1,5-a]pyrimidin-7(4H)-one]
- TGFβ induced myofibroblast formation (cell images) [2]: preventing TGFβ induced myofibroblast formation
- cell death (cell images) [2]: not causing cell death
- TGFβ induced myofibroblast formation (cell images) [3]: preventing TGFβ induced myofibroblast formation
- cell death (cell images) [3]: not causing cell death
- % Inhib. (percent inhibition of the molecule using the screen, 100% being a complete inhibition) [1]: 63%

Structure (SMILES): CCOC(=O)c1c(N)sc2c1CCC/C2=N/O [compound 5130037, ethyl 2-amino-7-(hydroxyimino)-4,5,6,7-tetrahydro-1-benzothiophene-3-carboxylate]
- TGFβ induced myofibroblast formation (cell images) [2]: preventing TGFβ induced myofibroblast formation
- cell death (cell images) [2]: not causing cell death
- TGFβ induced myofibroblast formation (cell images) [3]: preventing TGFβ induced myofibroblast formation
- cell death (cell images) [3]: not causing cell death
- % Inhib. (percent inhibition of the molecule using the screen, 100% being a complete inhibition) [1]: 68%

Structure (SMILES): CC(C)(C)NS(=O)(=O)c1ccc(NC(=O)c2ccncc2)cc1 [compound 9038066, N-{4-[(tert-butylamino)sulfonyl]phenyl}isonicotinamide]
- % Inhib. (percent inhibition of the molecule using the screen, 100% being a complete inhibition) [1]: 54%

Structure (SMILES): Cc1cc(S(=O)(=O)NCc2ccncc2)ccc1F [compound 9021391, 4-fluoro-3-methyl-N-(4-pyridinylmethyl)benzenesulfonamide]
- % Inhib. (percent inhibition of the molecule using the screen, 100% being a complete inhibition) [1]: 66%

Structure (SMILES): Oc1c(I)cc(Cl)c2cccnc12 [clioquinol]
- expression of αSMA and calponin [4]: did not inhibit

Structure (SMILES): Cc1nn2c(=O)cc(-c3ccc(Cl)cc3)[nH]c2c1-c1ccccc1 [compound 9080334, 5-(4-chlorophenyl)-2-methyl-3-phenylpyrazolo[1,5-a]pyrimidin-7(4H)-one]
- % Inhib. (percent inhibition of the molecule using the screen, 100% being a complete inhibition) [1]: 41%

Structure (SMILES): O=S(=O)(NCc1ccncc1)c1cccc(F)c1 [compound 9019912, 3-fluoro-N-(4-pyridinylmethyl)benzenesulfonamide]
- % Inhib. (percent inhibition of the molecule using the screen, 100% being a complete inhibition) [1]: 58%

Structure (SMILES): C=CCOc1ccc(NC(=O)c2ccc(CN3CCOCC3)cc2)cc1 [compound 7991998, N-[4-(allyloxy)phenyl]-4-(4-morpholinomethyl)benzamide]
- % Inhib. (percent inhibition of the molecule using the screen, 100% being a complete inhibition) [1]: 60%

Structure (SMILES): Cc1cc(Cl)c(Cl)cc1S(=O)(=O)NCc1ccncc1 [compound 9018748, 4,5-dichloro-2-methyl-N-(4-pyridinylmethyl)benzenesulfonamide]
- TGFβ induced myofibroblast formation (cell images) [2]: preventing TGFβ induced myofibroblast formation
- cell death (cell images) [2]: not causing cell death
- TGFβ induced myofibroblast formation (cell images) [3]: preventing TGFβ induced myofibroblast formation
- cell death (cell images) [3]: not causing cell death
- % Inhib. (percent inhibition of the molecule using the screen, 100% being a complete inhibition) [1]: 95%

Structure (SMILES): Cc1cc(C)c(C(=O)/C=C/c2ccccc2Cl)c(=O)[nH]1 [compound 5255687, 3-[3-(2-chlorophenyl)acryloyl]-4,6-dimethyl-2(1H)-pyridinone]
- TGFβ induced myofibroblast formation (cell images) [2]: preventing TGFβ induced myofibroblast formation
- cell death (cell images) [2]: not causing cell death
- TGFβ induced myofibroblast formation (cell images) [3]: preventing TGFβ induced myofibroblast formation
- cell death (cell images) [3]: not causing cell death
- % Inhib. (percent inhibition of the molecule using the screen, 100% being a complete inhibition) [1]: 70%

Structure (SMILES): CNC(=O)c1ccccc1OCCOc1ccccc1 [compound 9057423, N-methyl-2-(2-phenoxyethoxy)benzamide]
- TGFβ induced myofibroblast formation (cell images) [2]: preventing TGFβ induced myofibroblast formation
- cell death (cell images) [2]: not causing cell death
- TGFβ induced myofibroblast formation (cell images) [3]: preventing TGFβ induced myofibroblast formation
- cell death (cell images) [3]: not causing cell death
- % Inhib. (percent inhibition of the molecule using the screen, 100% being a complete inhibition) [1]: 51%

Structure (SMILES): CC[C@@]1([C@@H]2O[C@@H]([C@H]3O[C@@](O)(CO)[C@H](C)C[C@@H]3C)C[C@@H]2C)CC[C@H]([C@]2(C)CC[C@]3(C[C@H](O)[C@@H](C)[C@@H]([C@@H](C)[C@@H](OC)[C@H](C)C(=O)O)O3)O2)O1 [monensin]
- expression of αSMA and calponin [4]: inhibited expression of αSMA and calponin

Structure (SMILES): CCN(CC)C(=O)c1ccc(Cl)c(N)c1 [compound 9116592, 3-amino-4-chloro-N,N-diethylbenzamide]
- % Inhib. (percent inhibition of the molecule using the screen, 100% being a complete inhibition) [1]: 92%

Structure (SMILES): Cc1ccc(NC2=Nn3c(Cc4ccccc4)nnc3SC2)cc1 [compound 9016022, 3-benzyl-N-(4-methylphenyl)-7H-[1,2,4]triazolo[3,4-b][1,3,4]thiadiazin-6-amine]
- % Inhib. (percent inhibition of the molecule using the screen, 100% being a complete inhibition) [1]: 46%

Structure (SMILES): CC1=Nc2ccccc2NC2=C1C(=O)CC(c1ccco1)C2 (stereo not shown) [compound 9025733, 3-(2-furyl)-11-methyl-2,3,4,5-tetrahydro-1H-dibenzo[b,e][1,4]diazepin-1-one]
- % Inhib. (percent inhibition of the molecule using the screen, 100% being a complete inhibition) [1]: 84%

Structure (SMILES): CC(Nc1ncnc2c1oc1ccccc12)c1ccccc1.Cl (stereo not shown) [compound 9104696, N-(1-phenylethyl)[1]benzofuro[3,2-d]pyrimidin-4-amine hydrochloride]
- % Inhib. (percent inhibition of the molecule using the screen, 100% being a complete inhibition) [1]: 75%

Structure (SMILES): COc1ccccc1NC(=O)C#Cc1ccccc1 [compound 9048694, N-(2-methoxyphenyl)-3-phenyl-2-propynamide]
- TGFβ induced myofibroblast formation (cell images) [2]: preventing TGFβ induced myofibroblast formation
- cell death (cell images) [2]: not causing cell death
- TGFβ induced myofibroblast formation (cell images) [3]: preventing TGFβ induced myofibroblast formation
- cell death (cell images) [3]: not causing cell death
- % Inhib. (percent inhibition of the molecule using the screen, 100% being a complete inhibition) [1]: 92%

Structure (SMILES): O=C(Nc1nc2ccccc2[nH]1)c1ccccc1Br [compound 7263741, N-1H-benzimidazol-2-yl-2-bromobenzamide]
- % Inhib. (percent inhibition of the molecule using the screen, 100% being a complete inhibition) [1]: 46%

Structure (SMILES): CCOc1ccc(S(=O)(=O)NCc2ccncc2)c(C)c1C [compound 9022265, 4-ethoxy-2,3-dimethyl-N-(4-pyridinylmethyl)benzenesulfonamide]
- TGFβ induced myofibroblast formation (cell images) [2]: preventing TGFβ induced myofibroblast formation
- cell death (cell images) [2]: not causing cell death
- TGFβ induced myofibroblast formation (cell images) [3]: preventing TGFβ induced myofibroblast formation
- cell death (cell images) [3]: not causing cell death
- % Inhib. (percent inhibition of the molecule using the screen, 100% being a complete inhibition) [1]: 84%

From patent publication US10548911B2, “Small molecule anti-scarring agents” (UNIVERSITY OF ROCHESTER, priority 2014, dated 2020)
